This experiment has as its target Misshapen-like kinase 1 (MINK1) (Homo sapiens, UniProt Q8N4C8). Nature of the experiment: ADP-Glo kinase assay with recombinant human MINK1, MBP substrate and ATP. Type of experiment: biochemical.

Chain of Misshapen-like kinase 1 (MINK1) (Q8N4C8 whole entry): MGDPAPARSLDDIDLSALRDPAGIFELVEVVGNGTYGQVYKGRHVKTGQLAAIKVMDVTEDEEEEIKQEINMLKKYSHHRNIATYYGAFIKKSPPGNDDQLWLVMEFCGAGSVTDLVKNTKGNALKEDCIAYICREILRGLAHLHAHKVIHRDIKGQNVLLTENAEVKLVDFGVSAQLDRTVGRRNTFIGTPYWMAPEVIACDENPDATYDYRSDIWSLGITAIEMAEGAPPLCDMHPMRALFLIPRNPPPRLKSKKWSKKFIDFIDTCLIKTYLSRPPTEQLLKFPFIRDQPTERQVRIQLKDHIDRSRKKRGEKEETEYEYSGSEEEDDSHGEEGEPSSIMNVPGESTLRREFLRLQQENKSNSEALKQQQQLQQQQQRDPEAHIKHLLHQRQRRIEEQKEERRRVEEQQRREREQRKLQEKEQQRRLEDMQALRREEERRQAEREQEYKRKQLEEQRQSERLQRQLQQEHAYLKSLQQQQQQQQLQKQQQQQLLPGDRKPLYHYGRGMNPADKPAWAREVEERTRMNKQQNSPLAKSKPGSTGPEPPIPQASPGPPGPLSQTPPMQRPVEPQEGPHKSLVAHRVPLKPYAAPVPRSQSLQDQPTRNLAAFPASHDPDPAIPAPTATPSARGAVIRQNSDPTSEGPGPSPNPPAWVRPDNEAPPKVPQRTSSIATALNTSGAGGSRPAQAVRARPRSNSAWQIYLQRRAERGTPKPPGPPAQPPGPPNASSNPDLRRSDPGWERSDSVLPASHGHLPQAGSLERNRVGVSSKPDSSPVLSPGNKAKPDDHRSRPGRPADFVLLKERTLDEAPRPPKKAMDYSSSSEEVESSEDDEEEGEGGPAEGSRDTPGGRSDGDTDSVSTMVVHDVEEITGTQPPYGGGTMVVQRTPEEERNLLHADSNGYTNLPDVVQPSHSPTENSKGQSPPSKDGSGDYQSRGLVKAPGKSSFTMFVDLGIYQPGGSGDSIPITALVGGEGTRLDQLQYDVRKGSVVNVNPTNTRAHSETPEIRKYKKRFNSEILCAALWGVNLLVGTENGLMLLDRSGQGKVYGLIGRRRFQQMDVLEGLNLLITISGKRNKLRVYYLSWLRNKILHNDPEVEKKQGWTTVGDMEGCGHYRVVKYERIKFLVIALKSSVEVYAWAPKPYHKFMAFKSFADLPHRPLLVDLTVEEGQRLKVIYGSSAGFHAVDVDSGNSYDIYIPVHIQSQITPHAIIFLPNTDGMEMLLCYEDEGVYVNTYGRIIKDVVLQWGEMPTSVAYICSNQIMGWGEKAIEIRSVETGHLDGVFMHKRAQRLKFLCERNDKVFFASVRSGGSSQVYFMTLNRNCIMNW

The term IC50 denotes the concentration at which inhibition is half-maximal. With `Cc1ccc(-n2nc(C(C)(C)C)cc2NC(=O)NCc2cc(F)ccc2Oc2ccc3c(cnn3CCO)c2)cc1` [pexmetinib], the IC50 came to 10 µM.
